From PMC6112376, “Comprehensive Analyses and Prioritization of Tox21 10K Chemicals Affecting Mitochondrial Function by in-Depth Mechanistic Studies” (Environmental Health Perspectives, 2018)
Like-named read-outs stand apart in the source and are kept apart here.

Assays:
[1] = tested on: HepG2 cells; conditions: for IC50: read-out: MMP assays IC50 (µM) HepG2
[2] = tested on: HepG2 cells; conditions: cited from earlier work
[3] = tested on: rat primary hepatocytes; test: MMP assay in rat primary hepatocytes; conditions: for IC50: read-out: MMP assays IC50 (µM) Rat Hepatocytes
[4] = HepG2 cells, single number from one experiment
[5] = read-out: MMP assays IC50 (µM), qHTS-HepG2
[6] = rat hepatocytes, mean ± SD of three experiments
[7] = read-out: MMP assays IC50 (µM) qHTS-HepG2

CCN(C(=O)N(CC)c1ccccc1)c1ccccc1 [N,Nφ-Diethylcarbanilide]
MMP assays IC50 (µM) HepG2 [1, 4]: inactive | MMP assays efficacy (%) HepG2 [1, 4]: inactive | MMP assays efficacy (%) qHTS-HepG2 [2]: -69±23% | IC50 [2, 5]: 21.7 ± 38.2 µM | MMP assays efficacy (%) Rat Hepatocytes [3, 6]: -58±11% | IC50 [3, 6]: 13.1 ± 16.4 µM

O=Cc1c2ccccc2c(Cl)c2ccccc12 [Compound 10-Chloro-9-anthraldehyde]
MMP assays IC50 (µM) HepG2 [1, 4]: inactive | MMP assays efficacy (%) HepG2 [1, 4]: inactive | MMP assays efficacy (%) qHTS-HepG2 [2]: -82±26% | IC50 [2, 7]: 13.9 ± 7.82 µM | MMP assays efficacy (%) Rat Hepatocytes [3, 6]: -47±21% | IC50 [3, 6]: 24.3 ± 28.8 µM

Cc1ccc2oc(CN(Cc3ccccc3)C(=O)Nc3c(F)cc(F)cc3F)c(-c3ccc(Cl)cc3)c2c1
MMP assays efficacy (%) HepG2 [1, 4]: -66% | IC50 [1, 4]: 56.2 µM | MMP assays efficacy (%) qHTS-HepG2 [2]: -59±30% | IC50 [2, 7]: 21 ± 2.43 µM | MMP assays IC50 (µM) Rat Hepatocytes [3, 6]: inactive | MMP assays efficacy (%) Rat Hepatocytes [3, 6]: inactive

CCCCCCCC[N+](C)(CCCCCCCC)CCCCCCCC.O=S(=O)([O-])C(F)(F)F [Methyltrioctylammonium trifluoromethanesulfonate]
MMP assays efficacy (%) HepG2 [1, 4]: -105% | IC50 [1, 4]: 2.24 µM | MMP assays efficacy (%) qHTS-HepG2 [2]: -86±9% | IC50 [2, 5]: 2.16 ± 0.72 µM | MMP assays efficacy (%) Rat Hepatocytes [3, 6]: -73±33% | IC50 [3, 6]: 11.4 ± 2.12 µM

CC(C)COC(=O)c1ccc(O)cc1 [Isobutylparaben]
MMP assays efficacy (%) HepG2 [1, 4]: -129% | IC50 [1, 4]: 14.1 µM | MMP assays efficacy (%) qHTS-HepG2 [2]: -91±6% | IC50 [2, 5]: 14.2 ± 1.82 µM | MMP assays IC50 (µM) Rat Hepatocytes [3, 6]: inactive | MMP assays efficacy (%) Rat Hepatocytes [3, 6]: inactive

CCCCCCOc1ccccc1C(N)=O [Exalamide]
MMP assays IC50 (µM) HepG2 [1, 4]: inactive | MMP assays efficacy (%) HepG2 [1, 4]: inactive | MMP assays efficacy (%) qHTS-HepG2 [2]: -73±11% | IC50 [2, 7]: 9.81 ± 3 µM | IC50 ([3]; Rattus norvegicus, Hepatocyte): 29.2 ± 2.37 µM | MMP assays efficacy (%) Rat Hepatocytes [3, 6]: -59±17%

COc1ccc(C(=O)c2ccccc2)c(O)c1 [Compound 2-Hydroxy-4-methoxybenzophenone]
MMP assays IC50 (µM) HepG2 [1, 4]: inactive | MMP assays efficacy (%) HepG2 [1, 4]: inactive | MMP assays IC50 (µM) qHTS-HepG2 [2]: inactive | MMP assays efficacy (%) qHTS-HepG2 [2]: inactive | IC50 ([3]; Rattus norvegicus, Hepatocyte): 50.1 ± 18.9 µM

Cc1nc2ccccc2s1 [Compound 2-Methylbenzothiazole]
MMP assays IC50 (µM) HepG2 [1, 4]: inactive | MMP assays efficacy (%) HepG2 [1, 4]: inactive | MMP assays IC50 (µM) qHTS-HepG2 [2]: inactive | MMP assays efficacy (%) qHTS-HepG2 [2]: inactive | MMP assays IC50 (µM) Rat Hepatocytes [3, 6]: inactive | MMP assays efficacy (%) Rat Hepatocytes [3, 6]: inactive

Cl.Cl.Nc1ccc(O)c(N)c1 [2,4-Diaminophenol dihydrochloride]
MMP assays IC50 (µM) HepG2 [1, 4]: inactive | MMP assays efficacy (%) HepG2 [1, 4]: inactive | MMP assays efficacy (%) qHTS-HepG2 [2]: -58±5% | IC50 [2, 7]: 3.77 ± 1.06 µM | MMP assays IC50 (µM) Rat Hepatocytes [3, 6]: inactive | MMP assays efficacy (%) Rat Hepatocytes [3, 6]: inactive

CCCOc1ccc2nc(NC(=O)OC)sc2c1 [Tioxidazole]
MMP assays efficacy (%) HepG2 [1, 4]: -62% | IC50 [1, 4]: 15.5 µM | MMP assays efficacy (%) qHTS-HepG2 [2]: -70±6% | IC50 [2, 5]: 7.5 ± 1.75 µM | MMP assays efficacy (%) Rat Hepatocytes [3, 6]: -65±43% | IC50 [3, 6]: 13 ± 1.06 µM

CCCCCc1ccco1 [Compound 2-Pentylfuran]
MMP assays IC50 (µM) HepG2 [1, 4]: inactive | MMP assays efficacy (%) HepG2 [1, 4]: inactive | MMP assays efficacy (%) qHTS-HepG2 [2]: -76±20% | IC50 [2, 7]: 42.2 ± 2.81 µM | MMP assays IC50 (µM) Rat Hepatocytes [3, 6]: inactive | MMP assays efficacy (%) Rat Hepatocytes [3, 6]: inactive

COC(=O)C1=C(C)NC(C)=C(C(=O)O[C@@H]2CCCN(Cc3ccccc3)C2)[C@@H]1c1cccc([N+](=O)[O-])c1.Cl (racemic) [rac Benidipine hydrochloride]
MMP assays efficacy (%) HepG2 [1, 4]: -89% | IC50 [1, 4]: 30.8 µM | MMP assays efficacy (%) qHTS-HepG2 [2]: -93±18% | IC50 [2, 5]: 15 ± 3.18 µM | MMP assays IC50 (µM) Rat Hepatocytes [3, 6]: inactive | MMP assays efficacy (%) Rat Hepatocytes [3, 6]: inactive

Oc1ccc(Cc2ccccc2O)cc1 [2-(4-Hydroxybenzyl)phenol]
MMP assays efficacy (%) HepG2 [1, 4]: -87% | IC50 [1, 4]: 35.5 µM | MMP assays efficacy (%) qHTS-HepG2 [2]: -89±11% | IC50 [2, 7]: 27.5 ± 1.92 µM | MMP assays IC50 (µM) Rat Hepatocytes [3, 6]: inactive | MMP assays efficacy (%) Rat Hepatocytes [3, 6]: inactive

CCCCCCCC[n+]1ccn(C)c1.F[B-](F)(F)F [1-Methyl-3-octylimidazolium tetrafluoroborate]
MMP assays efficacy (%) HepG2 [1, 4]: -115% | IC50 [1, 4]: 19.9 µM | MMP assays efficacy (%) qHTS-HepG2 [2]: -73±29% | IC50 [2, 7]: 5.66 ± 5.82 µM | MMP assays efficacy (%) Rat Hepatocytes [3, 6]: -76±29% | IC50 [3, 6]: 43.4 ± 7.4 µM

CCc1cc(SCc2sc(-c3ccc(C(F)(F)F)cc3)nc2CN2CCN(c3ccc(OC)cc3)CC2)ccc1OCC(=O)O
MMP assays efficacy (%) HepG2 [1, 4]: -105% | IC50 [1, 4]: 31.6 µM | MMP assays efficacy (%) qHTS-HepG2 [2]: -128±5% | IC50 [2, 7]: 25.3 ± 5.81 µM | MMP assays efficacy (%) Rat Hepatocytes [3, 6]: -116±28% | IC50 [3, 6]: 23.1 ± 15.6 µM

CC(C)c1ccccc1O [Compound 2-Isopropylphenol]
MMP assays IC50 (µM) HepG2 [1, 4]: inactive | MMP assays efficacy (%) HepG2 [1, 4]: inactive | MMP assays IC50 (µM) qHTS-HepG2 [2]: inactive | MMP assays efficacy (%) qHTS-HepG2 [2]: inactive | MMP assays IC50 (µM) Rat Hepatocytes [3, 6]: inactive | MMP assays efficacy (%) Rat Hepatocytes [3, 6]: inactive

Cl.O=C1CSC2(CCN(CCCN3c4ccccc4Sc4ccc(Cl)cc43)CC2)N1 [Spiclomazine hydrochloride]
MMP assays IC50 (µM) HepG2 [1, 4]: inactive | MMP assays efficacy (%) HepG2 [1, 4]: inactive | MMP assays efficacy (%) qHTS-HepG2 [2]: -107±11% | IC50 [2, 5]: 34.8 ± 2.36 µM | MMP assays IC50 (µM) Rat Hepatocytes [3, 6]: inactive | MMP assays efficacy (%) Rat Hepatocytes [3, 6]: inactive

COc1cc(Nc2c(C#N)cnc3cc(OCCCN4CCN(C)CC4)c(OC)cc23)c(Cl)cc1Cl [Bosutinib;PF-5208763/SKI-606]
MMP assays efficacy (%) HepG2 [1, 4]: -57% | IC50 [1, 4]: 1.23 µM | MMP assays efficacy (%) qHTS-HepG2 [2]: -97±4% | IC50 [2, 7]: 0.75 ± 0.48 µM | MMP assays efficacy (%) Rat Hepatocytes [3, 6]: -56±1% | IC50 [3, 6]: 16.6 ± 11.2 µM

O=C(c1ccccc1)c1cccc(O)c1 [Compound 3-Hydroxybenzophenone]
MMP assays efficacy (%) HepG2 [1, 4]: -86% | IC50 [1, 4]: 39.8 µM | MMP assays efficacy (%) qHTS-HepG2 [2]: -87±9% | IC50 [2, 7]: 27.7 µM | MMP assays IC50 (µM) Rat Hepatocytes [3, 6]: inactive | MMP assays efficacy (%) Rat Hepatocytes [3, 6]: inactive

Cc1cc(Nc2ccc(O)cc2)ccc1N
MMP assays efficacy (%) HepG2 [1, 4]: -101% | IC50 [1, 4]: 14.1 µM | MMP assays efficacy (%) qHTS-HepG2 [2]: -93±15% | IC50 [2, 7]: 7.66 ± 0.88 µM | MMP assays IC50 (µM) Rat Hepatocytes [3, 6]: inactive | MMP assays efficacy (%) Rat Hepatocytes [3, 6]: inactive

Verteporfin
MMP assays efficacy (%) HepG2 [1, 4]: -127% | IC50 [1, 4]: 8.69 µM | MMP assays efficacy (%) qHTS-HepG2 [2]: -65±5% | IC50 [2, 5]: 3.27 ± 1.85 µM | MMP assays efficacy (%) Rat Hepatocytes [3, 6]: -43±14% | IC50 [3, 6]: 21.8 ± 7.79 µM

CCC(=C(CC)c1ccc(O)cc1)c1ccc(O)cc1 [(Z,E)-Diethylstilbestrol]
MMP assays efficacy (%) HepG2 [1]: -104% | MMP assays efficacy (%) qHTS-HepG2 [2]: -98±10% | IC50 [3]: 42.8 ± 10.3 µM

CN1CC(=O)NC1=NC(=O)Nc1cccc(Cl)c1 [Fenobam; McN-3377]
MMP assays IC50 (µM) HepG2 [1, 4]: inactive | MMP assays efficacy (%) HepG2 [1, 4]: inactive | MMP assays efficacy (%) qHTS-HepG2 [2]: -70±17% | IC50 [2, 7]: 25.9 ± 1.87 µM | MMP assays IC50 (µM) Rat Hepatocytes [3, 6]: inactive | MMP assays efficacy (%) Rat Hepatocytes [3, 6]: inactive

CC(C)(c1cc(Br)c(OCCO)c(Br)c1)c1cc(Br)c(OCCO)c(Br)c1
MMP assays efficacy (%) HepG2 [1, 4]: -99% | IC50 [1, 4]: 11 µM | MMP assays efficacy (%) qHTS-HepG2 [2]: -97±15% | IC50 [2, 7]: 6.21 ± 0.42 µM | MMP assays efficacy (%) Rat Hepatocytes [3, 6]: -88±17% | IC50 [3, 6]: 32.8 ± 2.67 µM

CCCCCCCC[N+](CCCCCCCC)(CCCCCCCC)CCCCCCCC.[Br-] [tetra-N-Octylammonium bromide]
MMP assays efficacy (%) HepG2 [1, 4]: -92% | IC50 [1, 4]: 0.13 µM | MMP assays efficacy (%) qHTS-HepG2 [2]: -88±6% | MMP assays IC50 (µM) Rat Hepatocytes [3, 6]: inactive | MMP assays efficacy (%) Rat Hepatocytes [3, 6]: inactive

Diniconazole
IC50 [1]: 8.91 µM | IC50 [2, 7]: 12.2 ± 3.53 µM | IC50 [3]: 36 ± 28.6 µM
